From US7307166B1, “Oxpurine nucleosides and their congeners, and acyl, derivatives thereof, for improvement of hematopoiesis” (Wellstat Therapeutics Corporation, priority 1987, dated 2007)

Experiments:
Balb/C female mice [1] = assay: Hematopoietic recovery after 5-fluorouracil in mice; format: in vivo, mouse
Description: 5-fluorouracil (5-FU) (150 mg/kg, i.p.) was administered to forty Balb/C female mice weighing approximately 20 grams each. Twenty-four hours later and each day thereafter for a total of 8 days, mice were given a 0.4 ml i.p. injection of either physiological saline (controls) or 5′-O-palmitoylguanosine (2.5 μmoles/mouse/day in 0.2% Tween 80). On days 7 and 14 following 5-FU administration half of the animals from each group were bled and then were sacrificed by cervical dislocation. Spleens were removed and weighed, and complete blood cells counts performed.
5-fluorouracil (5-FU) (150 mg/kg, i.p.) was administered to fifty-four Balb/C female mice weighing approximately 20 grams each. Twenty-four hours later and each day thereafter for a total of 7 days, mice were given a 0.4 ml i.p. injection of either physiological saline (controls) or palmitoylguanosine (2.5 μmoles/mouse/day in 0.2% Tween 80). On days 8, 10 and 12 following administration of 5-FU nine animals from each group were bled and then sacrificed by cervical dislocation. Spleens were removed and weighed, and complete blood cell counts performed.
Twenty-eight female Balb/C mice weighing approximately 20 grams each received a 0.4 ml i.p. injection of either physiological saline (controls), or palmitoyldeoxyguanosine (1 μmole/mouse) daily for three days. On the fourth day 5-fluorouracil (5-FU) (150 mg/kg, i.p.) was administered to all 28 of the animals. On days 5, 8 and 11 following 5-FU administration 4 (day 5) or 5 (days 8 and 11) animals from both groups were bled and then sacrificed by cervical dislocation. Spleens were removed and weighed, and complete blood cell counts performed. […]
Sixty female Balb/C mice weighing approximately 20 grams each were distributed into one of five treatment groups and treated once daily for three days by i.p. injection with 3′,5′-O—N^2-tripalmitoyl-2′-deoxyguanosine at a dose of either 1, 5, 10, 25, or 50 mg/kg/treatment in a Tween-DMSO vehicle (0.2% Tween-80 and 7.5% DMSO in physiological saline). Injection volume was 0.4 ml. An additional twelve animals (controls) received vehicle alone on those three days. On the fourth day all seventy-two animals received a single i.p. injection of 5-fluorouracil (5-FU) at a dose of 150 mg/kg. On days 7 and 10 following 5-FU administration six mice from each group were bled and then sacrificed by cervical dislocation. Six untreated mice were also bled and sacrificed to provide data on normal (basal) values. Spleens were removed and weighed, and complete blood cell counts performed.

[2] = test system: Normal Balb/C female mice; assay: Hematopoiesis in normal mice; format: in vivo, mouse; settings: for number of myelocytes (femoral bone marrow) / spleen weight: Ex 56: fifth day; for number of myelocytes (femoral bone marrow): 2.6 μmoles/mouse daily 4 days; for spleen weight: 2.6 μmoles/mouse i.p. daily 4 days; for spleen weights: 2.5 Moles/mouse/day i.p.
Description: Normal, otherwise untreated, female Balb/C mice weighing approximately 20 grams each received a total of 4 or 9 0.4 ml intraperitoneal injections (one per day) of either Tween-80 (0.2%) (controls), palmitoylguanosine ([…]), or palmitoyldeoxyinosine ([…]). Twenty-four hours after the 4th or 9th treatment, groups of 5 or 6 animals from each of the 3 groups were bled and then sacrificed by cervical dislocation. Spleens were removed and weighed, and complete blood cell counts performed.
Normal Balb/C female mice weighing approximately 20 grams each were given a daily 0.4 ml i.p. injection of either physiological saline (controls), palmitoylguanosine (2.6 μmoles/mouse), palmitoyldeoxyguanosine (2.6 μmoles/mouse), monopalmitoylguanosine 2′,3′-acyclic dialcohol (2.6 μmoles/mouse), and palmitoyl-8-bromoguanosine (2.6 μmoles/mouse) for 4 days. On the fifth day all 3 animals in each of the 5 groups were bled and then sacrificed by cervical dislocation. Spleens were removed and weighed, and complete blood cell counts performed. Femoral bone marrow from each mouse was collected and a differential cell count performed on marrow smears.

F344 male rats = assay: Recovery of blood cell counts in rats after cyclophosphamide; format: in vivo, rat
Description: Cyclophosphamide (CP) (40 mg/kg, i.p.) was administered to 16 F344 male rats weighing approximately 200 grams each. Twenty-four hours later and each day thereafter rats were given a 0.5 ml i.p. injection of either physiological saline (controls), or palmitoyldeoxyguanosine at a dose of 10 μmoles/rat. On days 5, 7 and 10 following CP administration all 8 animals from both groups were bled and complete blood cell counts performed. On day 10 all of the rats were sacrificed and their spleens removed and weighed.

Balb/C female mice [3] = assay: Hematopoietic recovery after cyclophosphamide in mice (spleen weight, blood cell counts); format: in vivo, mouse
[4] = test system: human myeloid leukemia cell line (HL-60); settings: incubation of HL-60 cells; cited from earlier work
[5] = test system: IL-3-dependent bone marrow cells; assay: Apoptosis of IL-3-dependent bone marrow cells deprived of IL-3 (trypan blue exclusion); format: cell-based, mouse
Description: Bone marrow cells were obtained by flushing the femurs of three male B6D2F1 mice. The cells were plated at 5.0×10^5/ml in MEM plus 10% fetal calf serum and 25 Units/ml of recombinant IL-3 for 24-48 hours. Non-adherent cells were then separated from adherent cells and maintained for an additional twelve days. IL-3 washed from cells, and cells were plated in MEM plus 10% fetal calf serum in the presence or absence of IL-3 and with or without the addition of palmitoyldeoxyguanosine (10 micrograms per milliliter) or deoxyguanosine (10 micrograms per milliliter). Cells were counted using the trypan blue exclusion method, and the percent of dead cells (trypan blue positive) was determined at 24, 40, 60 and 84 hours following the wash.

Balb/C female mice [6] = assay: Hematopoietic recovery after cyclophosphamide in mice (spleen weight, blood cell counts); format: in vivo, mouse; settings: Ex 48: day 7 after CP; 2.5 μmoles/mouse
Description: Twenty-four hours later and each day thereafter for a total of 6 days, mice were given a 0.4 ml i.p. injection of either physiological saline (controls), guanine (5 μmoles/mouse/day), or guanosine (5 μmoles/mouse/day). On day 7 all 10 mice in each of the three groups were bled, and then sacrificed by cervical dislocation. Spleens were removed and weighed, and complete blood cell counts performed.
Twenty-four hours later and each day thereafter for a total of 6 days, mice were given a 0.4 ml i.p injection of either physiological saline (controls), Tween 80 (0.2%), guanosine (5 μmoles/mouse/day in 0.2% Tween 80), or 2.5 μmoles per mouse per day of one of the following acylated derivatives of guanosine in 0.2% Tween 80: triacetylguanosine, octanoylguanosine, lauroylguanosine, or palmitoylguanosine. On day 7 following CP administration all 10 animals from each of the 7 groups were bled, and then sacrificed by cervical dislocation. Spleens were removed and weighed, and complete blood counts performed.
Twenty-four hours later treatment was begun. Mice were given a 0.4 ml i.p. injection of either physiological saline (controls), Tween 80 (0.2%), or palmitoylguanosine (5 μmoles/mouse/day in 0.2% Tween 80). The timing of the treatments was varied within the groups. The control group was given saline on days 1-6. The mice receiving Tween 80 were treated either on days 1-4, 4-6 or 1-6. Palmitoylguanosine-treated mice were treated either on days 1-2, 1-4, 3-5, 4-6 or 1-6. If a group of mice received no Tween 80 or palmitoylguanosine on a given day, saline was administered by i.p. injection. Thus, there were 9 groups of 9 animals in all. On day 7 following CP administration all of the animals were bled and then sacrificed by cervical dislocation. Spleens were removed and weighed, and complete blood cell counts performed.
Twenty-four hours later and each day thereafter for a total of 6 days, mice were given a 0.4 ml i.p. injection of either physiological saline (controls), Tween 80 (0.5%), or one of three different doses of octanoylguanosine (0.5, 2.5, or 5 μmoles/mouse/day in 0.5% Tween 80). On day 7 following CP administration all 9 animals from each of the […] were bled and then sacrificed by cervical dislocation. Spleens were removed and weighed, and complete blood cell counts performed.
Twenty-four hours later and each day thereafter for a total of 6 days, mice were given a 0.4 ml i.p. injection of either physiological saline (controls), Tween 80 (0.5%), or octanoylguanosine (5.0 μmoles/mouse/day in 0.5% Tween 80). On day 7 following CP administration all 10 animals from each of the 3 groups were bled and then sacrificed by cervical dislocation. Spleens were removed, weighed, and fixed in 10% formalin for later histological examination. Complete blood cell counts were performed on the collected blood.
Twenty-four hours later and each day thereafter for a total of 6 days, mice were given a 0.4 ml i.p. injection of either physiological saline (controls), benzoylguanosine (2.5 μmoles/mouse/day in 0.2% Tween 80), or palmitoylguanosine (2.5 μmoles/mouse/day in 0.2% Tween 80). On days 7 and 10 following CP administration 8 animals from each of the 3 groups were bled and then were sacrificed by cervical dislocation. Spleens were removed and weighed, and complete blood cell counts performed.
Twenty four hours later and each day thereafter for a total of 4 or 6 days, mice were given a 0.4 ml i.p. injection of either physiological saline (controls), palmitoyldeoxyinosine (2.5 μmoles/mouse), or palmitoyl-xanthosine (2.5 μmoles/mouse). On days 5 and 7 following CP administration 6 of the 12 animals in each of the 3 groups were bled and then sacrificed by cervical dislocation. Spleens were removed and weighed, and complete blood cell counts performed.

[7] = Ex 57: day 8 after 5-FU, pretreatment
[8] = Ex 57: day 11 after 5-FU, pretreatment
[9] = Ex 51: day 5 after CP, 2 μmoles/mouse
[10] = Ex 52: days 5 and 7 after CP, 0.2-2.0 μmoles/mouse, except 0.2 on day 5
[11] = Ex 53: day 5 after CP, palmitoylguanosine 2.0, palmitoyldeoxyguanosine 1.0 μmoles/mouse
[12] = Ex 53: day 7 after CP, palmitoylguanosine 1.0 and 2.0, palmitoyldeoxyguanosine 1.0 μmoles/mouse
[13] = Ex 48: day 5 after CP, 2.5 μmoles/mouse
[14] = Ex 50: day 5 after CP, 2 μmoles/mouse

Palmitoyl-2′-Deoxyguanosine [palmitoyldeoxyguanosine]
platelet counts (Balb/C female mice [1]; Ex 57: day 5 after 5-FU, pretreatment 1 μmole/mouse i.p. daily 3 days): significantly elevated
platelet counts (Balb/C female mice [1]; [7]): significantly higher
total neutrophil counts (Balb/C female mice [1]; [7]): significantly higher
spleen weight (Balb/C female mice [1]; Ex 57: day 8 after 5-FU, pretreatment 1 μmole/mouse): significantly higher
lymphocyte counts (Balb/C female mice [1]; [8]): significantly higher
platelet counts (Balb/C female mice [1]; [8]): significantly higher
spleen weights (Balb/C female mice [1]; [8]): significantly higher
total neutrophil counts (Balb/C female mice [1]; [8]): significantly higher
total white blood cell counts (Balb/C female mice [1]; [8]): significantly higher
number of myelocytes (femoral bone marrow) [2]: significantly greater
spleen weight [2]: significantly elevated
Lymphocytes (F344 male rats; day 10 after CP, 10 μmoles/rat): significantly elevated
Platelets (F344 male rats; day 10 after CP, 10 μmoles/rat): significantly elevated
spleen weight (F344 male rats; day 10 after CP, 10 μmoles/rat): significantly elevated
white blood cell counts (F344 male rats; days 5, 7 and 10 after CP 40 mg/kg, 10 μmoles/rat i.p. daily): significantly elevated
total neutrophil counts (F344 male rats; days 5, 7 and 10 after CP, 10 μmoles/rat): significantly elevated
total neutrophil counts (Balb/C female mice [3]; [9]): significantly elevated
white blood cell counts (Balb/C female mice [3]; [9]): significantly elevated
spleen weight (Balb/C female mice [3]; Ex 51: day 5 after CP, 2 μmoles/mouse i.p. daily, vs Tween-80): significantly elevated
spleen weight (Balb/C female mice [3]; Ex 52: days 5 and 7 after CP, 0.2, 0.4, 1.0, 2.0 μmoles/mouse, except 0.2 on day 5): significantly elevated
total neutrophil counts (Balb/C female mice [3]; [10]): significantly elevated
white blood cell counts (Balb/C female mice [3]; [10]): significantly elevated
spleen weight (Balb/C female mice [3]; [11]): significantly elevated
total neutrophil counts (Balb/C female mice [3]; [11]): significantly elevated
white blood cell counts (Balb/C female mice [3]; [11]): significantly elevated
spleen weight (Balb/C female mice [3]; [12]): significantly elevated
total neutrophil counts (Balb/C female mice [3]; [12]): significantly elevated
white blood cell counts (Balb/C female mice [3]; [12]): significantly elevated
potency in elevating spleen weight and cell counts vs palmitoylguanosine (Balb/C female mice [3]; Ex 53: vs the same or a 2-fold greater dose of palmitoylguanosine): more potent
spleen weight (Balb/C female mice [3]; Ex 54: day 5 after CP, doses of 0.2 μmoles/mouse or greater): significantly elevated
white blood cell counts (Balb/C female mice [3]; Ex 54: day 5 after CP, doses of 0.4 μmoles/mouse or greater): significantly elevated
white blood cell counts (Balb/C female mice [3]; Ex 54: day 7 after CP, all doses 0.04-0.8 μmoles/mouse): statistically significant differences
spleen weight (Balb/C female mice [3]; Ex 54: day 7 after CP, all doses except 0.04 μmoles/mouse): significantly elevated
total neutrophil counts (Balb/C female mice [3]; Ex 54: days 5 and 7 after CP, all 6 doses 0.04-0.8 μmoles/mouse): significantly elevated

OC[C@H]1O[C@@H](n2cnc3c(O)ncnc32)[C@H](O)[C@@H]1O [inosine, reference compound]
induced maturation into functional neutrophils [4]: no effect

Nc1nc2c(ncn2[C@H]2C[C@H](O)[C@@H](CO)O2)c(=O)[nH]1 [dG, deoxyguanosine]
% Dead Cells ([5]; 24 hr after IL-3 wash, PdG or dG 10 micrograms per milliliter without IL-3, +IL3 = with IL-3): 15.5 ± 0.5%
% Dead Cells ([5]; 40 hr after IL-3 wash, 10 micrograms per milliliter): 21.5 ± 3.5 %
% Dead Cells ([5]; 60 hr after IL-3 wash, 10 micrograms per milliliter): 46.3 ± 10.3%
% Dead Cells ([5]; 84 hr after IL-3 wash, 10 micrograms per milliliter): 68.3 ± 6.0%

CCCCCCCCCCCCCCCC(=O)OC[C@H]1O[C@@H](n2cnc3c(=O)[nH]cnc32)C[C@@H]1O
Neutrophils (Balb/C female mice [6]): significantly increased
total leukocytes (Balb/C female mice [6]): significantly increased
spleen weights ([2]; Ex 44: day 5, 4 injections): significantly greater
spleen weights ([2]; Ex 44: day 10, 9 injections, vs Tween 80): significantly greater
neutrophil counts ([2]; Ex 44: day 10, 9 injections): significantly greater
total leukocyte counts ([2]; Ex 44: day 10, 9 injections): significantly greater
neutrophil counts (Balb/C female mice [3]; [13]): significantly elevated
total leukocyte counts (Balb/C female mice [3]; [13]): significantly elevated
spleen weight (Balb/C female mice [3]; Ex 48: day 5 after CP, 2.5 μmoles/mouse i.p. daily): significantly elevated
spleen weight (Balb/C female mice [3]; Ex 48: day 7 after CP, 2.5 μmoles/mouse): significantly increased
spleen weight (Balb/C female mice [3]; [14]): significantly elevated

CCCCCCCCCCCCCCCC(=O)OC[C@H]1O[C@@H](n2c(Br)nc3c(=O)[nH]c(N)nc32)[C@H](O)[C@@H]1O [palmitoyl-8-bromoguanosine]
number of myelocytes (femoral bone marrow) [2]: significantly greater

monopalmitoylguanosine 2′,3′-acyclic dialcohol
number of myelocytes (femoral bone marrow) [2]: significantly greater
spleen weight [2]: significantly elevated
spleen weight (Balb/C female mice [3]; [14]): significantly elevated
